Laboratory results as given in patent US20200276217A1 (priority 2017, published 2020).

Columns and labels:
[1] = system: influenza A virus A/Puerto Rico/8/34(PR8)-Luc (IAV-Luc); type: cell-based
[2] = system: A/WSN33/H1N1 influenza virus; test: Prophylactic treatment of influenza-infected mice, lung index; details: 50 mg/kg intragastric, from two days before infection and 5 days after; 40 LD50 via nasal dripping; compared with 50 mg/kg ribavirin; FIG. 4
Excerpt: […] Barb/C mice (6- to 8-week old) were randomly divided into 4 groups (A, B, C, D) with 5 mice in each group. All animals were marked by ear clipping and then treated with a specified preparation. Group A was a blank control group, Group B was a group in which PBS was used to resist virus infection, Group C was a group in which ribavirin was used to resist virus infection, and Group D was a group in which azithromycin was used to resist virus infection. Two days before the drugs being used to resist virus infection, the mice were treated with 50 mg/kg ribavirin and 50 mg/kg azithromycin by intragastric administration, and were infected with the influenza virus via nasal dripping with a dose of 40 LD50 (10^3 PFU/ml) on the third day (50 μl/mouse), and PBS was administered instead in the blank control group. The mice were administered consecutively for 5 days after virus infection, and the administration method was same as above. After 12 hours of fasting and water deprivation, the body weights were weighed, the lungs were incised aseptically and weighed after the mice were sacrificed by eyeball extirpating, and the lung indexes were calculated so as to evaluate the protective effect of azithromycin for mice in influenza virus infection, in which the calculation method of the lung index was a conventional calculation method known in the art.

[3] = system: HA/NA-HIVLuc pseudovirus; type: cell-based, influenza virus; details: A549 cells, pre-incubated 8 h with concentration gradients, relative to absolute ethyl alcohol, FIG. 5
[4] = target: RNA polymerase of influenza virus (Influenza A virus, UniProt P03428+P03431+P03433); type: cell-based
[5] = system: IAV-Luc influenza virus (A/Puerto Rico/8/34(PR8)-Luc); type: cell-based; details: 10 μM, A549 cells, three treatment schemes, detection after 24 h, FIG. 7

With azithromycin the “ability to resist influenza virus infection (infection rate relative to absolute ethyl alcohol control)” value [1] was “had the ability to resist influenza virus infection”, the “efficacy against influenza virus infection compared among the macrolide antibiotics” value ([1]; 10 μM, A549 cells, FIG. 1) was “had the strongest efficacy” and the “inhibitory effect against influenza virus infection in the screening of small molecule compounds” value ([1]; 10 μM, A549 cells, FIG. 2) was “quite strong inhibitory effect against influenza virus infection”. The “ability to resist influenza virus infection compared with oseltamivir” value ([1]; same concentration (10 μM), A549 cells, FIG. 3) was “stronger than that of oseltamivir”, the “protective effect for mice in influenza virus infection (lung index)” value [2] was “better protective effect for mice in influenza virus infection as compared with ribavirin” and the “inhibition of influenza virus (pseudovirus) infection at various concentrations” value [3] was “inhibited influenza virus infection and the inhibitory effect was concentration-dependent”. The “effect on the replication of the RNA polymerase of influenza virus” value [4] was “did not affect the replication of the RNA polymerase of influenza virus” and the “site of antiviral action (host cell versus virus particles)” value [5] was “exerted antiviral effect mainly by acting on the virus particles”.
erythromycin was tested, and the “ability to resist influenza virus infection (infection rate relative to absolute ethyl alcohol control)” value [1] was “had the ability to resist influenza virus infection”.
In the case of midecamycin, the “ability to resist influenza virus infection (infection rate relative to absolute ethyl alcohol control)” value [1] is reported as “had the ability to resist influenza virus infection”.
In the case of roxithromycin, the “ability to resist influenza virus infection (infection rate relative to absolute ethyl alcohol control)” value [1] is reported as “had the ability to resist influenza virus infection”.
